From patent publication US8623919B2, “Method of synthesizing S-allyl-cysteine analogues and their therapeutic application in treating myocardial infarction” (Fudan University, priority 2007, dated 2014)

Legend:
Bcl-2 mRNA = experiment: RT-PCR of Bcl-2 mRNA in left ventricle; assay type: in vivo, SD rats; settings: MI rats, 50 mg/Kg/day, p>0.05
Excerpt: (§1) Animals were assigned and prepared the same as in Example 7, and dosages of SPRC and SAC were used the same in this example as in Example 7.
To further verify the effects of SPRC and SAC, the expressions of Bcl-2, Bax and CSE mRNA were accessed by RT-PCR (FIG. 17). An isoform of the CSE gene was detected (GenBank; access no. AY641456). The relative amounts of CSE mRNA in Left ventricular subjected to MI were increase 3.3-fold and 1.5-fold following SPRC and SAC exposure as compared to the MI group.

H9c2 cells [1] = experiment: Endogenous H2S level in H2O2 injured H9c2 cells; assay type: cell-based; settings: SPRC treatments
Excerpt: Similar experiments are done on cultured H9c2 cardiac muscle cells groups with the same experiment condition and different dosages of SPRC treatments. The results of the experiments confirm that endogenous H2S level in H2O2 injured H9c2 cells is elevated by SPRC treatments. […] It is also observed that the apoptosis of hypoxic myocardial cells is decreased, the survival rate of the in H2O2 injured H9c2 cells is increased and the LDH releasing from the in H2O2 injured H9c2 cells are reduced by three dosages of SPRC treatment.

CSE = target: T1, CSE (Rattus norvegicus, UniProt P18757); experiment: Left ventricular CSE activity in tissue homogenates of rats; assay type: in vivo, SD rats; settings: 50 mg/Kg/day; for CSE activity: left ventricle
T1 construct: from tissue; host or cells: rat left ventricle (homogenate), myocardial infarction model
T1 sequence (P18757 whole entry): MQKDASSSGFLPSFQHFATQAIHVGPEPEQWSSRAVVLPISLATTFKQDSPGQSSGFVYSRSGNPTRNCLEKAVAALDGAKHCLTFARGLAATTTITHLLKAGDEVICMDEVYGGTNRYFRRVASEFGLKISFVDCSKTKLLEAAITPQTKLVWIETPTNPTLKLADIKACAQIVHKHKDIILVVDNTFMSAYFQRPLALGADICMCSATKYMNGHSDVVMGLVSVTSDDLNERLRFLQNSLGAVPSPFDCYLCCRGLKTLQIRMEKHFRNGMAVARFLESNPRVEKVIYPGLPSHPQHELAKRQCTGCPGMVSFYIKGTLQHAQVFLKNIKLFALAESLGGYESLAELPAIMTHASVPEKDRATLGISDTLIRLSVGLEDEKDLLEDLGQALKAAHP
Experimental: as §1
The plasma levels of H2S in each treatment group were determined since CSE mediates the endogenous production of H2S in mammals. Plasma H2S concentrations in MI group rats at 48 h after MI induction were 34.7±5.6 μM (n=8). […] Left ventricular CSE activity was analyzed in the tissue homogenates from each treatment group (n=6). CSE activity was 1.58±0.15 μmol/g protein/hr in left the ventricular tissues in MI group and 2.19±0.32 μmol/g protein/hr in the MI+SAC treated rats.
SPRC administered rats had the highest CSE activity of 2.58±0.07 μmol/g protein/hr (p<0.01) (FIG. 15B). This observation correlated with the observed increases in H2S concentrations in the same treatment groups.

H9c2 cells [2] = experiment: H9c2 cell viability by MTT method after H2O2 injury; assay type: cell-based; settings: H2O2 200 μmol/L 2 hours; SPRC Low Dose 10^−7 mol/L
Experimental: H9c2 cells were cultured in DMEM with 10% of fetal bovine serum, 37 degree C. and 5% CO2 incubator. The monolayer culture was split at a 1:4 ratio or harvested to perform experiments when confluence was 70-80%. Adjust the density of the cells to […] and inoculate the cells on a 96 well plate.
Control group, no SAC analogues treatment, no H2O2 injured process.
H2O2 injury (Model) group, no SAC analogues treatment, under H2O2 200 μmol/L for 2 hours.
PAG group, PAG 10^−4/mol/L
SPRC dosage groups: SPRC 1E-7, SPRC 1E-6, SPRC 1E-5, the cell groups were treated with SPRC dosages of 10^−7 mol/L, 10^−6 mol/L, 10^−5 mol/L respectively.
SPRC dosage+PAG groups: the cell group was treated with SPRC dosages of 10^−5 mol/L and PAG 10^−4 mol/L.
H9c2 cell viability was assessed by MTT method. […] PAG is able to block the effect of SPRC.

rats following MI injury [3] = experiment: Serum LDH in rats (sham or MI); assay type: in vivo, SD rats; settings: Sham rats; 50 mg/Kg/day intraperitoneal
Experimental: as §1
Serum CK levels were detected with diagnostic kit (NJBI, China) according to the instructions. LDH were determined calorimetrically with a spectrophotometer. Lipid peroxidation was measured in terms of MDA content using the thiobarbituric acid (TBA) assay. […] With regard to lipid peroxidation, the levels of MDA in MI groups increased at 48 h after myocardial infarction. […] (FIG. 14)

rats following MI injury [4] = experiment: ECG in rats following MI injury; assay type: in vivo, SD rats; settings: 50 mg/Kg/day, day 10, 48 hr after the induction of MI
Experimental: (§2) SPRC and SAC were dissolved in saline (vehicle). Male SD rats (weight 200-250 g) were randomly assigned to […] treatment groups: group (1) Sham group: Sham-treated with saline (n=4), (2) Sham+SPRC group: Sham-treated with SPRC (50 mg/Kg/day) (n=4), (3) Sham+SAC group: Sham-treated with SAC (50 mg/Kg/day) (n=4), (4) MI group: MI treated with saline (n=8), (5) MI+SPRC group: MI treated with SPRC (50 mg/Kg/day) (n=8), (6) MI+SAC group: MI treated with SAC (50 mg/Kg/day) (n=8). Rats were pre-treated for seven days with each SAC analogues respectively via an intraperitoneal injection once daily before they were used for MI model studies. […] Briefly, the rats were anesthetized with 7% choral hydrate (60 mg/kg intraperitoneal injection), endotracheally intubated and mechanically ventilated with room air, respiratory rate 100 breaths/min, tidal volume 2.5 ml with a rodent ventilator (DHX-150, China). ECG was recorded in the anaesthetized animal for a period of one minute using the Animal Mflab200 amplifier (Produced in China). A left thoracotomy was performed and the third intercostal space was exposed. […] Then incisions were sutured and the chests were closed. […] Forty eight hours after the surgery, ECG was recorded for each rat in each group. […] To evaluate the effect of SPRC and SAC on MI, infarct size were measured after TTC staining (FIG. 12).

rats following MI injury [5] = experiment: Infarct size after TTC staining in rats following MI injury; assay type: in vivo, SD rats; settings: 50 mg/Kg/day intraperitoneal, 7 days before and 2 days after ligation, 48 h after surgery, saline 36.0±1.3%
Experimental: as §2

H9c2 cells [6] = experiment: Apoptosis of H9c2 cells, Hoechst and PI double stain; assay type: cell-based; settings: H2O2 injured H9c2; Hoechst 33342 and PI double stain
Experimental: H9c2 cells were cultured same as Example 12, the cells were then divided into the groups same as Example 12.
Cells were washed in PBS and then stained with Hoechst 33342 (10 μg/ml) and propidium iodide (10 μg/ml) for 10 min at 37° C. Cells were washed again with PBS and fixed with 3.7% paraformaldehyde (v/v). Each field of cells was photographed twice (magnification, ×400), using appropriate filters to examine and compare Hoechst 33342 and PI fluorescence staining in the same cells. […]. Apoptosis is of great damage to the structure and the function of the heart, which leads to heart failure.

- CSE activity (CSE; MI rats): 2.58 ± 0.07 μM/mgprot
- Left ventricular CSE activity (CSE; MI rats, left ventricular tissue homogenates, MI group 1.58±0.15): 2.58±0.07 μmol/g protein/hr
- CSE activity (CSE; Sham rats): 2.41 ± 0.12 μM/mgprot
Structure (SMILES): C#CCSC[C@H](N)C(=O)O [SPRC, S-propargyl-cysteine]
- Bcl-2 gene expression (Bcl-2 mRNA): no significant differences
- endogenous H2S level (H9c2 cells [1]): elevated
- H9c2 Cell Survive (H9c2 cells [2]): 62.4 ± 1.6%
- LDH (rats following MI injury [3]): 2612 ± 189 U/L
- ST-segment elevation in ECG (rats following MI injury [4]): less elevated ST-segment
- infarct size/total area of myocardium (rats following MI injury [5]): 20.8±2.4%
- apoptosis of H9c2 cells (H9c2 cells [6]): effective on inhibiting apoptosis of H9c2 cells
